Among the data in patent US20120309776A1, “PYRROLO[2,3-D]PYRIMIDINE UREA COMPOUNDS AS JAK INHIBITORS” (Pfitzer Inc., priority 2010, published 2012) are IC50 values, retold here.

SMILES strings stand for the structures.

This assay has as its system T-cell proliferation in canine whole blood (ConA and canine IL-2 stimulated). As to the kind of experiment: Canine in vitro T-cell Proliferation Assay. The assay is classed as cell-based, beagle dogs. The following applies: Canis lupus familiaris, ConA 1 μg/ml + canine IL-2 50 ng/ml, tritiated thymidine incorporation, average assay results. Here is the method:
Introduction: T-cell activation plays a key role in a variety of inflammatory and autoimmune disorders as well as asthma, allergies and pruritus. Since T-cell activation can, in part, can be triggered by cytokines that signal through the JAK-STAT pathway, a JAK inhibitor could be effective against such diseases involving aberrant T-cell activation. […] Methods: Canine whole blood is collected in heparin sulfate tubes from beagle dogs. Whole blood (20 μL) is plated in 96-well plates (Costar) with 180 μL of DMEM complete medium (Dublecco's Modified Eagle Medium; 10% heat inactivated fetal bovine serum; 100 u/ml penicillin; 100 ug/mL streptomycin, from Gibco) containing vehicle control or test compound (0.001 to 10 μM), concanavalin A (ConA; 1 μg/ml), and canine interleukin-2 (IL-2; 50 ng/ml). Wells containing whole blood, medium with vehicle control and no ConA or IL-2 are used as background (BKG) controls. Plates are incubated at 37° C. for 48 hrs. Tritiated thymidine, 0.4 μCi/well (Perkin Elmer), is added for 20 additional hours. Plates are frozen and then thawed, washed and filtered using a Brandel MLR-96 cell harvester and prewet filter mats (Wallac 1205-401, Perkin Elmer). Filters are dried at 60° C. for one hour (Precision 16EG convection oven) and placed into filter sample bags (Wallac 1205-411, Perkin Elmer) with 10 mL of scintillant (Wallac 1205-440, Perkin Elmer). Sealed filters are counted on a LKB Wallac 1205 Betaplate liquid scintillation counter. Data are collected via Gterm Betaplate program v1.1 (Wallac copyright 1989-1990) and transformed into percent inhibition, calculated using the following formula: […]

On to `C[C@@H]1CCN(C(=O)Nc2nncs2)C[C@@H]1N(C)c1ncnc2[nH]ccc12` [Example 1, (3R,4R)-4-methyl-3-[methyl(7H-pyrrolo[2,3-d]pyrimidin-4-yl)amino]-N-(1,3,4-thiadiazol-2-yl)piperidine-1-carboxamide], for which the IC50 worked out at 28.5 nM.
Under `COc1nsc(NC(=O)N2CC[C@@H](C)[C@@H](N(C)c3ncnc4[nH]ccc34)C2)n1` [Example 2, (3R,4R)-N-(3-methoxy-1,2,4-thiadiazol-5-yl)-4-methyl-3-[methyl(7H-pyrrolo[2,3-d]pyrimidin-4-yl)amino]piperidine-1-carboxamide] stands 50 nM.
For the compound `Cc1noc(NC(=O)N2CC[C@@H](C)[C@@H](N(C)c3ncnc4[nH]ccc34)C2)c1C#N` [Example 3, (3R,4R)-N-(4-cyano-3-methylisoxazol-5-yl)-4-methyl-3-[methyl(7H-pyrrolo[2,3-d]pyrimidin-4-yl)amino]piperidine-1-carboxamide], the IC50 was > 10000 nM.
Consider `CSc1nc(NC(=O)N2CC[C@@H](C)[C@@H](N(C)c3ncnc4[nH]ccc34)C2)n(C)n1` [Example 4, (3R,4R)-4-methyl-N-[1-methyl-3-(methylsulfanyl)-1H-1,2,4-triazol-5-yl]-3-[methyl(7H-pyrrolo[2,3-d]pyrimidin-4-yl)amino]piperidine-1-carboxamide], for which the IC50 is > 10000 nM.
